The numbers were not newly measured in patent publication US20180064146A1, “METHOD FOR THE SURFACE DECONTAMINATION OF PACKAGED SOLID FOOD” (priority 2015, published 2018), which cites them from elsewhere.

One series deals with Escherichia coli. Particulars: for MICs (in liquid form): agar dilution, oil in liquid form; for MIDs (as vapour): oil as vapour. A general note: Agar dilution tests growth on a series of plates holding different concentrations.
Series [1] deals with strains of Arcobacter butzleri. Particulars: vapours; Arcobacter butzleri in cabbage leaf; to an undetectable level.

For `CC(C)=CCCC(C)=CC=O` [Citral], in the series on Escherichia coli, the “MICs (in liquid form)” value is 800 µg/mL and the “MIDs (as vapour)” value was 12.5 μg/cm^2. Besides, in series [1], the microbial load reduction is 7 log CFU/2 cm^2.

With `C=C(C)[C@H]1CC=C(C)CC1` [Limonene], in the series on Escherichia coli, the “MICs (in liquid form)” value was 3200 µg/mL and the “MIDs (as vapour)” value was 800 μg/cm^2.

In the case of `C=CC(C)(O)CCC=C(C)C` (centres unmarked) [Linalool], in the series with Escherichia coli, the “MICs (in liquid form)” value was 3200 µg/mL and the “MIDs (as vapour)” value is recorded as 50 μg/cm^2. For the same compound, the microbial load reduction in series [1] was 7 log CFU/2 cm^2.
